Data from the supplement of paper PMC10949913.

Experiments:
Assay in all cases: area under concentration-response curve (viability) (AUC (a.u.)); higher = less active
Conditions in all cases: 48 h
CU-ACC1 = test system: CU-ACC1
Method in brief: (§1)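 Library compounds were dispensed at 11 concentrations (23 nL each) onto three adrenocortical carcinoma cell lines in 1,536-well plates. Luminescence was recorded after 48 h using CellTiter-Glo, and signals were normalised per plate to vehicle and empty-well controls. Fitted concentration-response curves of inhibitory or non-responding classes only supplied the AC50 and area under the curve.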

NCI-H295R = test system: NCI-H295R
Method in brief: as §1

CU-ACC2 = test system: CU-ACC2
Method in brief: as §1

SMILES	area under concentration-response curve (CU-ACC1)	area under concentration-response curve (NCI-H295R)	area under concentration-response curve (CU-ACC2)
C[C@@H]1[C@H](O)[C@@H](C)/C=C/C=C/C=C/C=C/C=C/C=C/C=C/[C@H](O[C@@H]2O[C@H](C)[C@@H](O)[C@H](N)[C@@H]2O)C[C@@H]2O[C@](O)(C[C@@H](O)C[C@@H](O)[C@H](O)CC[C@@H](O)C[C@@H](O)CC(=O)O[C@H]1C)C[C@H](O)[C@H]2C(=O)O	550	595	633
CNC(=O)[C@H](Cc1c[nH]c2ccccc12)NC(=O)[C@@H](CC(=O)NO)CC(C)C	473	460	492
Cn1cc(-c2nc(N[C@@H]3CCCC[C@@H]3N)c(F)c3c2C(=O)NC3)cn1	623	660	719
CC(C)(C)C(=O)CN1C(=O)[C@H](NC(=O)Nc2cccc(C(=O)O)c2)CN(C2CCCCC2)c2ccccc21	518	559	612
CC(C)OC1=C(F)C=C(C=C1)C2=N[N]([C@@H](C)C/3=C(C4=CC(=CC=C4)F)/C(=O)C5=CC(=CC=C5O3)F)C6=C2C(=NC=N6)N	516	547	641
Cc1c(F)cccc1NC(=O)Nc1ccc(Cl)c([S+](=O)([O-])[C@H]2CCCNC2)c1O	540	552	545
Clc1ccc2ncc(-c3cccc(NC4CNC4)n3)n2c1	522	576	644
OC(COC1=C2C(=O)\C=C(/OC2=CC=C1)C([O-])=O)COC3=C4C(=O)\C=C(/OC4=CC=C3)C([O-])=O	527	555	624
OC[C@@H](O)[C@@H](O)[C@H](O)[C@@H](O)CO	562	592	645
CC1(C)NC(=O)N(c2ccc([N+](=O)[O-])c(C(F)(F)F)c2)C1=O	511	543	634
O=C(NC1CCOCC1)c1ccc(-c2cc(-c3c[nH]nc3-c3ccccn3)ccn2)cc1	429	453	497
C[C@H]1O[C@H]([C@H](O)[C@@H]1O)N2\C=C(F)/C(=O)NC2=O	559	550	621
CC(C)(OCc1nn(Cc2ccccc2)c2ccccc12)C(=O)O	416	491	460
C/C1=C2/[N]3[Co+]456([OH])<-[N]7=C1[C@@H](CCC(N)=O)C(C)(C)/C7=C/C1=[N]->4C(=C(/C)C4=[N]->5[C@@](C)([C@H]3[C@H](CC(N)=O)[C@@]2(C)CCC(=O)NC[C@@H](C)OP(=O)([O-])O[C@H]2[C@@H](O)[C@@H](n3c[n]->6c5cc(C)c(C)cc53)O[C@@H]2CO)[C@@](C)(CC(N)=O)[C@@H]4CCC(N)=O)/[C@@](C)(CC(N)=O)[C@@H]1CCC(N)=O	495	564	595
CN1\C(=C([O-])/C2=CC=CC=C2[S+]1([O-])=O)C(=O)NC3=NC=C(C)S3	479	525	572
OC[C@H]1O[C@@H](S[C@@H]2O[C@H](CO)[C@H](O)[C@H](n3cc(-c4cccc(F)c4)nn3)[C@H]2O)[C@H](O)[C@@H](n2cc(-c3cccc(F)c3)nn2)[C@H]1O	507	547	590
C/C=C/C(=O)N(CC)c1ccccc1C	417	441	468
CC(C)C[C@@H]1NC(=O)[C@@H](C(C)C)NC(=O)[C@@H]2CCCN2C(=O)[C@@H](CC(=O)O)NC(=O)[C@@H](Cc2c[nH]c3ccccc23)NC1=O	489	550	604
CNC(=O)c1ccc(N2C(=S)N(c3ccc(C#N)c(C(F)(F)F)c3)C(=O)C23CCC3)cc1F	488	534	500
CCC(=O)[N-]S(=O)(=O)c1ccc(-c2c(-c3ccccc3)noc2C)cc1.[Na+]	549	595	656
C=C(c1ccc(C(=O)O)cc1)c1cc2c(cc1C)C(C)(C)CCC2(C)C	509	511	500
CC[C@H](/C=C/[C@@H](C)[C@H]1CC[C@H]2[C@@H]3CC=C4C[C@@H](O)CC[C@]4(C)[C@H]3CC[C@]12C)C(C)C	550	602	612

SMILES	area under concentration-response curve (CU-ACC1)	area under concentration-response curve (NCI-H295R)	area under concentration-response curve (CU-ACC2)
C\C1=C(\C=C(\C#N)C(=O)N1)C2=CC=NC=C2	532	543	515
C[C@]\12CCC(=O)\C=C1CC[C@H]3[C@@H]4CC[C@](O)(C(=O)CO)[C@@]4(C)C[C@H](O)[C@H]23	458	512	549
COc1ccc2c(C(=S)N(C)CC(=O)O)cccc2c1C(F)(F)F	490	481	535
CCOC(=O)C/1=C(C)/NC(=S)NC1C2=CC=CC(=C2)O (configuration not stated)	498	526	545
CO[C@H]1CC[C@H](N(c2cc(C3=CCCCC3)sc2C(=O)[O-])C(=O)[C@H]2CC[C@H](C)CC2)CC1	514	573	613
COc1ccc(-c2ccc3cc(C(=O)O)ccc3c2)cc1C12CC3CC(CC(C3)C1)C2	477	479	518
COCCOc1ccc(N2CCN(CCn3ncc4c3nc(N)n3nc(-c5ccco5)nc43)CC2)cc1	552	530	606
CC(N)C12CC3CC(CC(C3)C1)C2 (configuration not stated)	507	494	523
C[S+](=O)([O-])c1cc(F)cc2c3c(n(Cc4ccc(Cl)cc4)c12)[C@@H](CC(=O)O)CC3	536	544	613
COC(=O)N(C)c1c(N)nc(-c2nn(Cc3ccccc3F)c3ncccc23)nc1N	488	488	586
CC\1=C(C(=O)N(\C=C1)C2=CC=C(C=C2)C3=NC=CO3)/C4=CC5=CN=C(N)N=C5C=C4	547	574	625
CC[C@@]1(O)C(=O)OCC/2=C1/C=C/3N(CC4=C(CCNC(C)C)C5=CC=CC=C5N=C34)C2=O	538	654	611
CCC1(C)CC(=O)NC1=O (configuration not stated)	497	551	603
Cc1cccc(-c2n[nH]cc2-c2ccc3ncccc3n2)n1	468	524	567
COc1ccc(C(=O)N2CCN(C(=O)/C=C/c3ccc(Br)cc3)CC2)cc1	499	536	638
COc1cc([S+](C)(=O)[O-])ccc1Nc1nc2ccc(-c3ccc(NC(=O)[C@H](C)c4ccc(F)cc4)cc3)cn2n1	565	567	648
COC12C(COC(N)=O)\C3=C(/N1CC4C2N4C)C(=O)C(=C(N)/C3=O)\C (configuration not stated)	506	507	544
CNC(=O)Cn1cc(-c2ccc3c(c2)C(F)CC32NC(=O)N(CC(=O)N(Cc3ccc(F)cc3)[C@@H](C)C(F)(F)F)C2=O)cn1 (some centres not stated)	517	504	549
CCNCc1nc2c(N)nc3ccccc3c2n1CC(C)(C)O	500	516	556
Cc1nc(-c2cccnc2)sc1C(=O)Nc1ccccc1-c1cn2c(CN3CCOCC3)csc2n1	454	504	456
O=C(Nc1c(Cl)cncc1Cl)c1ccc(OC(F)F)c(OCC2CC2)c1	464	523	556
CC1=CC=C2\N=C/3N(CC[C@@]3(O)C(=O)C2=C1)C4=CC=CC=C4	537	552	616
